Assay results reported in patent publication US20250064968A1, “ANTIBODY-CONJUGATED CHEMICAL […] OF D[…] H[…] LINKERS AND METHODS THEREOF” (Genentech, Inc., priority 2022, published 2025).

Tests used:
BRM = biological target: T1, BRM (Homo sapiens, UniProt P51531); assay: Cell assays to determine DC50 and Dmax (nuclear BRM immunofluorescence after Ab-CIDE treatment); assay type: cell-based; design: DCmax (NCI-H1944): unit not given here; details: NCI-H1944 cells, 24 h drug treatment
T1 construct: endogenous in cells; host or cells: HCC515 and H1944 (NCI-H1944) cells
Experimental: HCC515 and H1944 cells were plated in 384 well plates at 4000 and 2500 cells/well, respectively. The next day Ab-CIDEs were added. Following 24 h of drug treatment the cells were fixed with […] for 15 minutes. The plates were washed three time with PBS. The cells were incubated with IF blocking solution ([…], 10% BSA, 0.1% Triton, 0.010% Azide, X-100 in PBS). After 1.5 h a 2× solution of primary antibody diluted in IF blocking buffer: BRM (Cell signaling Cat #11966, 1:2000) was added. The plates were incubated over night at 4° C. The following morning cells were washed three time with PBS. Cells were then incubated with secondary antibodies (rabbit-Alexa 488 A21206 (1:2000)) for 1 h at room temperature in the dark. Hoechst H3570 at 1:5000 was added to the wells and the plates were incubated for an additional 30 minutes. Plates were wash 3×PBS and image on Opera Phenix™ High Content Screening System. Using nuclear staining as a mask, nuclear BRM mean signal intensity was quantified.

[1] = Stability of antibody-conjugated L1-CIDE at high DAR (DAR 14 synthesis); assay type: physicochemical; details: antibody conjugate from DAR 14 synthesis
Text: The hydrolysable linkers therefore are able to provide an advantage in obtaining high DAR, which results in high numbers of CTDEs that can be attached to a single antibody.

[2] = Ab target TfR2, conjugate DAR 5.41-6.14
[3] = Ab target TfR2, high-DAR conjugate (DAR 13.13-13.75)

T1 sequence (P51531 whole entry): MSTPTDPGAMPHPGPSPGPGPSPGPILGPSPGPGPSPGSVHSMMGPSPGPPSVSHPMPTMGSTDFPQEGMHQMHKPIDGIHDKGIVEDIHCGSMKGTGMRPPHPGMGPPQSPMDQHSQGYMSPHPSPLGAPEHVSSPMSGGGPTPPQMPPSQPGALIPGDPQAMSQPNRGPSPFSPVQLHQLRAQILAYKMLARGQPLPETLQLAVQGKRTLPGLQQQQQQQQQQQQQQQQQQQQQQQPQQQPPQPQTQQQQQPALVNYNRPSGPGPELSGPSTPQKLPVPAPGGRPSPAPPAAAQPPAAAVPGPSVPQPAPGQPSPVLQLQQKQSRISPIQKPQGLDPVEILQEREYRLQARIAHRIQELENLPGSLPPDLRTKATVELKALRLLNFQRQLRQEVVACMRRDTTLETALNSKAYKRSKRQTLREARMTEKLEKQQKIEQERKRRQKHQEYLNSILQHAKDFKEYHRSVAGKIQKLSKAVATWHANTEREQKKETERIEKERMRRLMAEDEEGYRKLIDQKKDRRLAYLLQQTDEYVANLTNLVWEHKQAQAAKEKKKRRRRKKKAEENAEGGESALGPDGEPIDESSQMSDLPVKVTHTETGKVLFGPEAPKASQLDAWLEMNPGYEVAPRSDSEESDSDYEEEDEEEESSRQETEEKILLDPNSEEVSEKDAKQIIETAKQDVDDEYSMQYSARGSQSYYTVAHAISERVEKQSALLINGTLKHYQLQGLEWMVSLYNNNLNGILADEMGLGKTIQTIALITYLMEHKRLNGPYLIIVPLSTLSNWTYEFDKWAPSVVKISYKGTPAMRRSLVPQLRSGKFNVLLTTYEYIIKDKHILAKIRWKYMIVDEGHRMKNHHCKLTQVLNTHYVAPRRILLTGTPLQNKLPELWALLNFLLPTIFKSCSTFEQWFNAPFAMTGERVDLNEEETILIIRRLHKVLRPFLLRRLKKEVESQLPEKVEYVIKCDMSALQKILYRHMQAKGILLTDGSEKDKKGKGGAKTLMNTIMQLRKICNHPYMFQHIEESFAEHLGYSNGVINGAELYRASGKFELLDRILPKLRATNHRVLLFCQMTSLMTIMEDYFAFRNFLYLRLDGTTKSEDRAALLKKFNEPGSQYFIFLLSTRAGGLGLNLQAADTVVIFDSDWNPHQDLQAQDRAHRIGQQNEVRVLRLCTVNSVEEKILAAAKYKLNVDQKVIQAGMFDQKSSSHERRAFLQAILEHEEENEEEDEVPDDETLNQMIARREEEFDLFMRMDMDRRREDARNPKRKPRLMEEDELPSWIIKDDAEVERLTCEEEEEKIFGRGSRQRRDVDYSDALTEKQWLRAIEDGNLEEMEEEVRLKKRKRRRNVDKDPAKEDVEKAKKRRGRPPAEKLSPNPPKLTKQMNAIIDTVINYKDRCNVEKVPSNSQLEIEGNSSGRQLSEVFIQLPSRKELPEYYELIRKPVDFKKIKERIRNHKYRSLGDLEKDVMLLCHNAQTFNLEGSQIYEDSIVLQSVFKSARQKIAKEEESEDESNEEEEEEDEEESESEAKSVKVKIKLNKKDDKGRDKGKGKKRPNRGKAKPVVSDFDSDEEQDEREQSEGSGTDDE

In the case of `Cc1ncsc1-c1ccc([C@H](C)NC(=O)[C@@H]2C[C@@H](O)CN2C(=O)[C@@H](c2cc(OCCN3CCN(CCOc4cc(N5C6CCC5CN(c5cc(-c7ccccc7OCc7ccc(NC(=O)[C@H](CCCCN(C)C)NC(=O)C8(C(=O)NCCCCCNC(=O)[C@H](CO)N9C(=O)C=CC9=O)CCC8)cc7)nnc5N)C6)ccn4)[C@H](C)C3)no2)C(C)C)cc1.O=C(O)C(F)(F)F` [Hy-B-CIDE-1], the DC50 (BRM; [2]) is reported as 128 nM and the “DCmax (NCI-H1944)” value (BRM; [2]) is reported as 89.

In the case of `COC[C@@H](C(=O)NCCCCCNC(=O)C1(C(=O)N[C@@H](CCCCN(C)C)C(=O)Nc2ccc(COc3ccccc3-c3cc(N4CC5CCC(C4)N5c4ccnc(OCCN5CCN(CCOc6cc([C@H](C(=O)N7C[C@H](O)C[C@H]7C(=O)N[C@@H](C)c7ccc(-c8scnc8C)cc7)C(C)C)on6)C[C@H]5C)c4)c(N)nn3)cc2)CCC1)N1C(=O)C=CC1=O.O=C(O)C(F)(F)F` [Hy-B-CIDE-2], the DC50 (BRM; [2]) is reported as 160 nM and the “DCmax (NCI-H1944)” value (BRM; [2]) is reported as 90.

In the case of `Cc1ncsc1-c1ccc([C@H](C)NC(=O)[C@@H]2C[C@@H](O)CN2C(=O)[C@@H](c2cc(OCCN3CCN(CCOc4cc(N5C6CCC5CN(c5cc(-c7ccccc7OCc7ccc(NC(=O)[C@H](CCCCN(C)C)NC(=O)C8(C(=O)NCCN(C)CCN9C(=O)C=CC9=O)CCC8)cc7)nnc5N)C6)ccn4)[C@H](C)C3)no2)C(C)C)cc1.O=C(O)C(F)(F)F` [Hy-B-CIDE-5], the DC50 (BRM; [2]) is reported as 412 nM and the “DCmax (NCI-H1944)” value (BRM; [2]) is reported as 76.

For `Cc1ncsc1-c1ccc([C@H](C)NC(=O)[C@@H]2C[C@@H](O)CN2C(=O)[C@@H](c2cc(OCCN3CCN(CCOc4cc(N5C6CCC5CN(c5cc(-c7ccccc7OCc7ccc(NC(=O)[C@H](CCCCN(C)C)NC(=O)C8(C(=O)NCCCCCNC(=O)CN9C(=O)C=CC9=O)CCC8)cc7)nnc5N)C6)ccn4)[C@H](C)C3)no2)C(C)C)cc1.O=C(O)C(F)(F)F` [Hy-B-CIDE-6], the “DC50 (NCI-H1944)” value (BRM; [2]) was 0.28 µg/mL and the “DCmax (NCI-H1944)” value (BRM; [2]) was 90.

In the case of `CC(C)[C@@H](C(=O)N1C[C@H](O)C[C@H]1C(=O)N[C@@H](C)c1ccc(C#N)cc1)c1cc(OCCN2CCC(O[C@H]3C[C@H](Oc4cc(N5C6CCC5CN(c5cc(-c7ccccc7OCc7ccc(NC(=O)[C@H](CCCCN(C)C)NC(=O)C8(C(=O)NCCN(C)CCN9C(=O)C=CC9=O)CCC8)cc7)nnc5N)C6)ccn4)C3)CC2)no1` [Hy-B-CIDE-7], the Stability [1] is reported as “Stable”, the DC50 (BRM; [2]) is reported as 205 nM and the “DCmax (NCI-H1944)” value (BRM; [2]) is reported as 62. The “DCmax (NCI-H1944)” value (BRM; [3]) was 75 and the DC50 (BRM; Ab target TfR2, high-DAR conjugate (DAR 13.75)) was 89.6 nM.

With `Cc1ncsc1-c1ccc([C@H](C)NC(=O)[C@@H]2C[C@@H](O)CN2C(=O)[C@@H](c2cc(OCCN3CCN(CCOc4cc(N5C6CCC5CN(c5cc(-c7ccccc7OCc7ccc(NC(=O)[C@H](CCCCN(C)C)NC(=O)C8(C(=O)NCCCCCN(C)CCN9C(=O)C=CC9=O)CCC8)cc7)nnc5N)C6)ccn4)[C@H](C)C3)no2)C(C)C)cc1.O=C(O)C(F)(F)F` [Hy-B-CIDE-8] the DC50 (BRM; [2]) was 85.6 nM and the “DCmax (NCI-H1944)” value (BRM; [2]) was 74.

In the case of `CC(C)[C@@H](C(=O)N1C[C@H](O)C[C@H]1C(=O)N[C@@H](C)c1ccc(C#N)cc1)c1cc(OCCN2CCC(O[C@H]3C[C@H](Oc4cc(N5C6CCC5CN(c5cc(-c7ccccc7O)nnc5NC(=O)OCc5ccc(NC(=O)[C@H](CCCCN(C)C)NC(=O)C7(C(=O)NCCCCCN(C)CCN8C(=O)C=CC8=O)CCC7)cc5)C6)ccn4)C3)CC2)no1.O=C(O)C(F)(F)F` [Hy-B-CIDE-9], the DC50 (BRM; [2]) is reported as 2200 nM and the “DCmax (NCI-H1944)” value (BRM; [2]) is reported as 82.

With `CC(C)[C@@H](C(=O)N1C[C@H](O)C[C@H]1C(=O)N[C@@H](C)c1ccc(C#N)cc1)c1cc(OCCN2CCC(O[C@H]3C[C@H](Oc4cc(N5C6CCC5CN(c5cc(-c7ccccc7O)nnc5NC(=O)OCc5ccc(NC(=O)[C@H](CCCCN(C)C)NC(=O)C7(C(=O)NCCCCCNC(=O)[C@H](CO)N8C(=O)C=CC8=O)CCC7)cc5)C6)ccn4)C3)CC2)no1` [Hy-B-CIDE-10] the DC50 (BRM; [2]) was 4440 nM and the “DCmax (NCI-H1944)” value (BRM; [2]) was 80.

In the case of `CC(C)[C@@H](C(=O)N1C[C@H](O)C[C@H]1C(=O)N[C@@H](C)c1ccc(C#N)cc1)c1cc(OCCN2CCC(O[C@H]3C[C@H](Oc4cc(N5C6CCC5CN(c5cc(-c7ccccc7OCc7ccc(NC(=O)[C@H](CCCCN(C)C)NC(=O)C8(C(=O)NCCCCCN(C)CCN9C(=O)C=CC9=O)CCC8)cc7)nnc5N)C6)ccn4)C3)CC2)no1` [Hy-B-CIDE-11], the DC50 (BRM; [2]) is reported as 23200 nM and the “DCmax (NCI-H1944)” value (BRM; [2]) is reported as 53.

With `CC(C)[C@@H](C(=O)N1C[C@H](O)C[C@H]1C(=O)N[C@@H](C)c1ccc(C#N)cc1)c1cc(OCCN2CCC(O[C@H]3C[C@H](Oc4cc(N5C6CCC5CN(c5cc(-c7ccccc7OCc7ccc(NC(=O)[C@H](CCCCN(C)C)NC(=O)C8(C(=O)NCCCCCNC(=O)[C@H](CO)N9C(=O)C=CC9=O)CCC8)cc7)nnc5N)C6)ccn4)C3)CC2)no1` [Hy-B-CIDE-12] the DC50 (BRM; [2]) was 12600 nM and the “DCmax (NCI-H1944)” value (BRM; [2]) was 60.

With `CC(C)[C@@H](C(=O)N1C[C@H](OP(=O)(O)O)C[C@H]1C(=O)N[C@@H](C)c1ccc(C#N)cc1)c1cc(OCCN2CCC(O[C@H]3C[C@H](Oc4cc(N5C6CCC5CN(c5cc(-c7ccccc7OCc7ccc(NC(=O)[C@H](CCCCN(C)C)NC(=O)C8(C(=O)NCCN(C)CCN9C(=O)C=CC9=O)CCC8)cc7)nnc5N)C6)ccn4)C3)CC2)no1` [Hy-B-PCIDE-2] the Stability [1] was “Stable” and the “DCmax (NCI-H1944)” value (BRM; [3]) was 42.
